# Results published in ChEMBL document CHEMBL1157999, “A new epidioxy sterol as an antifouling substance from a palauan marine sponge, lendenfeldia chondrodes” (1999).
# Key:
# Format in all cases: functional, Mytilus edulis/galloprovincialis MCLGV-2007
# Mytilus edulis [1] = test: Antifouling activity against blue mussel assessed as responding mussel at 1 ppm by foot stimulant method
# Mytilus edulis [2] = test: Antifouling activity against blue mussel assessed as responding mussel at 10 ppm by foot stimulant method
# Mytilus edulis [3] = test: Antifouling activity against blue mussel assessed as responding mussel at 100 ppm by foot stimulant method
SMILES,Activity (Mytilus edulis [1]),Activity (Mytilus edulis [2]),Activity (Mytilus edulis [3])
C=CC(CC[C@@H](C)[C@H]1CC[C@@H]2[C@]1(C)CC[C@H]1[C@]23C=C[C@]2(C[C@@H](O)CC[C@]12C)OO3)(OO)C(C)C (mixture of isomers),0%,20%,95%
CC(=O)C1=CC[C@H]2[C@]3(C)CC[C@H]4C(C)(C)CCC[C@]4(C(=O)O)[C@H]3CC(=O)[C@]2(C)[C@H]1C=O,95%,100%,100%
C=C(CC[C@@H](C)[C@H]1CC[C@@H]2[C@]1(C)CC=C1[C@]23C=C[C@]2(C[C@@H](O)CC[C@]12C)OO3)C(C)C,0%,0%,0%
CC(=O)OC[C@]12CCCC(C)(C)[C@@H]1CC[C@]1(C)[C@@H]2C[C@H]2OC(=O)[C@H]3[C@H](C(C)=O)[C@@H](O)C[C@@H]1[C@]23C,90%,100%,100%
CC(=O)O[C@H]1C[C@H]2[C@@](C)(CC[C@H]3C(C)(C)CCC[C@@]32C=O)[C@@H]2CC=C(C(C)=O)[C@H](C=O)[C@@]12C,10%,55%,75%
CC(C)CCC[C@@H](C)[C@H]1CC[C@@H]2[C@]1(C)CC[C@H]1[C@]23C=C[C@]2(C[C@@H](O)CC[C@]12C)OO3,0%,0%,0%
